Test results as given in patent publication US20160101148A1, “TREATMENT AND PREVENTION OF BACTERIAL SKIN INFECTIONS USING ORITAVANCIN” (priority 2013, published 2016).

Key:
[1] = test system: ABSSSI suspected or proven to be due to a gram-positive pathogen, including MRSA; assay: SOLO I Phase 3 trial, efficacy: single dose IV oritavancin versus IV vancomycin for 7 to 10 days; assay type: in vivo, human; conditions: for Difference in lesion size reduction ≧20% rate (oritavancin minus vancomycin) / Difference in primary efficacy endpoint rate (oritavancin minus vancomycin): ECE; for Lesion Size Reduction ≧20% From Baseline / Primary efficacy endpoint response rate (cessation of spread, absence of fever, no rescue antibiotics): ECE 48 to 72 hours; for Difference in investigator-assessed clinical cure rate (oritavancin minus vancomycin) / Difference in sustained clinical cure rate (oritavancin minus vancomycin): PTE; for Investigator-Assessed Clinical Cure / Sustained Clinical Cure: PTE 7 to 14 days after EOT
Procedure: The primary efficacy endpoint comprised: 1) cessation of spreading or reduction in the size of the baseline lesion, 2) absence of fever, and 3) no rescue antibiotic, at 48 to 72 hours, for the modified intent to treat population.
The study design was consistent with current guidelines from FDA (U.S. Food and Drug Administration. Guidance for Industry Acute Bacterial Skin and Skin Structure Infections: Developing Drugs for Treatment (DRAFT GUIDANCE). Available via Internet at the URL containing: fda.gov/downloads/Drugs/GuidanceComplianceRegulatoryInformation/Guidances/ucm071185.p df) and EMA (European Medicines Agency Committee for Medicinal Products for Human Use. Addendum to the note for guidance on evaluation of medicinal products indicated for treatment of bacterial infections (CHMP/EWP/558/95 REV 2) to address indication-specific clinical data (draft). 2012. Available via Internet at the URL containing: ema.europa.eu/docs/en_GB/document_library/Scientific_guideline/2012/07/WC500129443.pdf) and Foundation for National Institutes of Health guidance was considered for analyses (Talbot G H etl. Clin Infect Dis. 2012. 55(8):1114-1121). The protocol was approved by institutional review boards/ethics committees and all patients provided written informed consent. The study was conducted from January 2011 through October 2012 at 46 study centers in Mexico, Spain, Germany, Romania, Russia, Ukraine, Israel, India, and the United States. […] Aztreonam and metronidazole were permitted for gram-negative and anaerobic cover, respectively.
Clinical evaluations were performed at the following time points: Early Clinical Evaluation (ECE) at 48 to 72 hours after the initiation of the study drug infusion, End of Therapy (EOT) at Day 7 to Day 10 or the day the patient stopped study drug or changed to non-study drug therapy for primary ABSSSI, Day 10 Evaluation defined as 10 days after the initiation of the study drug infusion, Post Therapy Evaluation (PTE) at 7 to 14 days after the EOT visit, and Safety Follow-up at 60 days (+7 days) after the initiation of the study drug infusion. Safety data was reviewed by a data monitoring committee.
Eligible patients were to be at least 18 years of age with diagnosis of ABSSSI that was suspected or proven to be due to a gram-positive pathogen and which required at least 7 days of IV therapy. The diagnosis of ABSSSI was defined as wound infections (either traumatic or surgical in origin), cellulitis/erysipelas or major cutaneous abscess with surrounding erythema, edema, and/or induration of at least 75 cm^2. The onset of wound infections or cellulitis/erysipelas must have occurred within 7 days prior to randomization. Patients also had to present with signs and symptoms of systemic inflammation. Patients were not eligible to participate if they received systemic or topical antibacterial therapy with gram-positive activity within the preceding 14 days.
The primary efficacy endpoint was a composite outcome of 1) cessation of spreading or reduction in the size of the baseline lesion, 2) absence of fever, and 3) no rescue antibiotic medication at the ECE visit, for the mITT population.
The secondary efficacy outcomes were as follows: 1) Lesion area decrease by ≧20% from Baseline at ECE, 2) Investigator-Assessed Clinical Response at PTE, 3) Sustained Clinical Response at PTE.
The analyses were performed for patients who had lesion area assessments at baseline and ECE using the mITT and CE populations.
If a patient had clinical failure assessed beyond the PTE visit window, the patient was considered as a clinical failure. If a patient had clinical success assessed beyond the PTE visit window, a) and if the patient had clinical failure before the PTE visit, the patient was considered a clinical failure at PTE or b) if the patient had clinical success also before the PTE visit, the patient was considered a clinical success at PTE.

[2] = test system: S. aureus strains (14 mecC MRSA, 2 mecA MRSA, ATCC 29213 MSSA); assay: In vitro time-kill assays at free peak and free trough concentrations; assay type: cell-based, Staphylococcus aureus
Procedure: Viable cell count was determined by serial dilution plating, including the use of 25 g/L charcoal suspension to limit antibiotic carryover. […] Time-kill assays were repeated at least twice independently; results presented are from a representative experiment.
Doubling dilution concentrations of comparator agents were likewise chosen to approximate their fCmax and fCmin levels in plasma when administered at approved dosages for complicated skin and skin structure infections, using pharmacokinetic data and protein binding values from their respective package inserts (DAP [Cubicin®]; LZD [Zyvox®]; VAN [Vancocin®]; Table 3).

CN[C@H](CC(C)C)C(=O)N[C@H]1C(=O)N[C@@H](CC(N)=O)C(=O)N[C@H]2C(=O)N[C@H]3C(=O)N[C@H](C(=O)N[C@H](C(=O)O)c4cc(O)cc(O)c4-c4cc3ccc4O)[C@H](O[C@H]3C[C@](C)(N)[C@@H](O)[C@H](C)O3)c3ccc(c(Cl)c3)Oc3cc2cc(c3O[C@@H]2O[C@H](CO)[C@@H](O)[C@H](O)[C@H]2O[C@H]2C[C@](C)(NCc3ccc(-c4ccc(Cl)cc4)cc3)[C@@H](O)[C@H](C)O2)Oc2ccc(cc2Cl)[C@H]1O [Oritavancin, N^DISACC-(4-(4-chlorophenyl)benzyl)A82846B]
Efficacy versus vancomycin for ECE and PTE endpoints ([1]; 10% non-inferiority margin): non-inferior to vancomycin
Patients both early treatment responders (lesion size reduction of ≧20% at ECE) and clinical successes at PTE ([1]; CE population): more than 84%
Difference in lesion size reduction ≧20% rate (oritavancin minus vancomycin) ([1]; CE): 1.9%
Difference in primary efficacy endpoint rate (oritavancin minus vancomycin) ([1]; CE): 1.2%
Lesion Size Reduction ≧20% From Baseline ([1]; CE): 90.6%
Primary efficacy endpoint response rate (cessation of spread, absence of fever, no rescue antibiotics) ([1]; CE): 87.3%
Difference in investigator-assessed clinical cure rate (oritavancin minus vancomycin) ([1]; CE): −1.3%
Difference in sustained clinical cure rate (oritavancin minus vancomycin) ([1]; CE): −3.9%
Investigator-Assessed Clinical Cure ([1]; CE): 91.9%
Sustained Clinical Cure ([1]; CE): 79.4%
Difference in lesion size reduction ≧20% rate (oritavancin minus vancomycin) ([1]; MRSA MicroE): 7.5%
Difference in primary efficacy endpoint rate (oritavancin minus vancomycin) ([1]; MRSA MicroE): 1.8%
Lesion Size Reduction ≧20% From Baseline ([1]; MRSA MicroE): 96.5%
Primary efficacy endpoint response rate (cessation of spread, absence of fever, no rescue antibiotics) ([1]; MRSA MicroE): 88.4%
Difference in investigator-assessed clinical cure rate (oritavancin minus vancomycin) ([1]; MRSA MicroE): −2.2%
Difference in sustained clinical cure rate (oritavancin minus vancomycin) ([1]; MRSA MicroE): −2.8%
Investigator-Assessed Clinical Cure ([1]; MRSA MicroE): 95.3%
Sustained Clinical Cure ([1]; MRSA MicroE): 81.4%
Difference in lesion size reduction ≧20% rate (oritavancin minus vancomycin) ([1]; MRSA MicroITT): 6.4%
Difference in primary efficacy endpoint rate (oritavancin minus vancomycin) ([1]; MRSA MicroITT): 0.8%
Lesion Size Reduction ≧20% From Baseline ([1]; MRSA MicroITT): 90.4%
Primary efficacy endpoint response rate (cessation of spread, absence of fever, no rescue antibiotics) ([1]; MRSA MicroITT): 80.8%
Lesion Size Reduction ≧20% From Baseline ([1]; MRSA MicroITT, listed as oritavancin): 90.4%
Difference in investigator-assessed clinical cure rate (oritavancin minus vancomycin) ([1]; MRSA MicroITT): −0.3%
Difference in sustained clinical cure rate (oritavancin minus vancomycin) ([1]; MRSA MicroITT): −0.7%
Investigator-Assessed Clinical Cure ([1]; MRSA MicroITT): 82.7%
Sustained Clinical Cure ([1]; MRSA MicroITT): 68.3%
Difference in lesion size reduction ≧20% rate (oritavancin minus vancomycin) ([1]; mITT): 4.1%
Difference in primary efficacy endpoint rate (oritavancin minus vancomycin) ([1]; mITT): 3.4%
Lesion Size Reduction ≧20% From Baseline ([1]; mITT): 86.9%
Primary efficacy endpoint response rate (cessation of spread, absence of fever, no rescue antibiotics) ([1]; mITT): 82.3%
Lesion Size Reduction ≧20% From Baseline ([1]; mITT, listed as oritavancin): 86.9%
Primary efficacy endpoint response rate (cessation of spread, absence of fever, no rescue antibiotics) ([1]; mITT, listed as oritavancin): 82.3%
Difference in investigator-assessed clinical cure rate (oritavancin minus vancomycin) ([1]; mITT): −0.4%
Difference in sustained clinical cure rate (oritavancin minus vancomycin) ([1]; mITT): −2.6%
Investigator-Assessed Clinical Cure ([1]; mITT): 79.6%
Sustained Clinical Cure ([1]; mITT): 67.2%
Investigator-Assessed Clinical Cure ([1]; mITT, listed as oritavancin): 79.6%
Sustained Clinical Cure ([1]; mITT, listed as oritavancin): 67.2%
Time to cidality (≧3 log decrease) ([2]; 57147 (mecC), oritavancin ƒCmax 16 mg/L): 5-10 min
Time to cidality (≧3 log decrease) ([2]; 57147 (mecC), oritavancin ƒCmin 2 mg/L): 5-10 min
Time to cidality (≧3 log decrease) ([2]; 70611 (mecC), oritavancin ƒCmax 16 mg/L): ≦5 min
Time to cidality (≧3 log decrease) ([2]; 70611 (mecC), oritavancin ƒCmin 2 mg/L): 5-10 min
Time to cidality (≧3 log decrease) ([2]; 73348 (mecC), oritavancin ƒCmax 16 mg/L): 5-10 min
Time to cidality (≧3 log decrease) ([2]; 73348 (mecC), oritavancin ƒCmin 2 mg/L): 5-10 min
Time to cidality (≧3 log decrease) ([2]; 73415 (mecC), oritavancin ƒCmax 16 mg/L): 5-10 min
Time to cidality (≧3 log decrease) ([2]; 73415 (mecC), oritavancin ƒCmin 2 mg/L): 5-10 min
Time to cidality (≧3 log decrease) ([2]; 73617 (mecC), oritavancin ƒCmax 16 mg/L): 5-10 min
Time to cidality (≧3 log decrease) ([2]; 73617 (mecC), oritavancin ƒCmin 2 mg/L): 10-15 min
Time to cidality (≧3 log decrease) ([2]; 73829 (mecC), oritavancin ƒCmax 16 mg/L): ≦5 min
Time to cidality (≧3 log decrease) ([2]; 73829 (mecC), oritavancin ƒCmin 2 mg/L): 5-10 min
Time to cidality (≧3 log decrease) ([2]; 75814 (mecC), oritavancin ƒCmax 16 mg/L): ≦5 min
Time to cidality (≧3 log decrease) ([2]; 75814 (mecC), oritavancin ƒCmin 2 mg/L): 5-10 min
Time to cidality (≧3 log decrease) ([2]; 76918 (mecC), oritavancin ƒCmax 16 mg/L): 5-10 min
Time to cidality (≧3 log decrease) ([2]; 76918 (mecC), oritavancin ƒCmin 2 mg/L): 5-10 min
Time to cidality (≧3 log decrease) ([2]; 77431 (mecC), oritavancin ƒCmax 16 mg/L): ≦5 min
Time to cidality (≧3 log decrease) ([2]; 77431 (mecC), oritavancin ƒCmin 2 mg/L): 5-10 min
Time to cidality (≧3 log decrease) ([2]; 77601 (mecC), oritavancin ƒCmax 16 mg/L): ≦5 min
Time to cidality (≧3 log decrease) ([2]; 77601 (mecC), oritavancin ƒCmin 2 mg/L): 5-10 min
Time to cidality (≧3 log decrease) ([2]; 77950 (mecC), oritavancin ƒCmax 16 mg/L): ≦5 min
Time to cidality (≧3 log decrease) ([2]; 77950 (mecC), oritavancin ƒCmin 2 mg/L): 5-10 min
Time to cidality (≧3 log decrease) ([2]; 77964 (mecC), oritavancin ƒCmax 16 mg/L): ≦5 min
Time to cidality (≧3 log decrease) ([2]; 77964 (mecC), oritavancin ƒCmin 2 mg/L): 5-10 min
Time to cidality (≧3 log decrease) ([2]; 78085 (mecC), oritavancin ƒCmax 16 mg/L): 5-10 min
Time to cidality (≧3 log decrease) ([2]; 78085 (mecC), oritavancin ƒCmin 2 mg/L): 10-15 min
Time to cidality (≧3 log decrease) ([2]; 78651 (mecC), oritavancin ƒCmax 16 mg/L): 5-10 min
Time to cidality (≧3 log decrease) ([2]; 78651 (mecC), oritavancin ƒCmin 2 mg/L): 10-15 min
Time to cidality (≧3 log decrease) ([2]; ATCC 29213 (MSSA), oritavancin ƒCmax 16 mg/L): 5-10 min
Time to cidality (≧3 log decrease) ([2]; ATCC 29213 (MSSA), oritavancin ƒCmin 2 mg/L): 10-15 min
Time to cidality (≧3 log decrease) ([2]; ATCC 33591 (mecA), oritavancin ƒCmax 16 mg/L): 5-10 min
Time to cidality (≧3 log decrease) ([2]; ATCC 33591 (mecA), oritavancin ƒCmin 2 mg/L): 10-15 min
Time to cidality (≧3 log decrease) ([2]; ATCC 43300 (mecA), oritavancin ƒCmax 16 mg/L): 5-10 min
Time to cidality (≧3 log decrease) ([2]; ATCC 43300 (mecA), oritavancin ƒCmin 2 mg/L): 5-10 min
